This is an account of results in the SangsterLogP compilation.

Broadly, the logP is the decadic logarithm of the partition coefficient of the neutral form, usually between octanol and water. A lower logP goes with a more hydrophilic compound.

A short description of this series: method code SF-AS, from DOI: 10.1007/bf00778146.
As to `OCC1(Nc2nc(N3CC3)nc(N3CC3)n2)COC(c2ccco2)OC1` (stereo unspecified), the logP came to 0.27.
With `CCC(CO)(CO)Nc1nc(N2CC2)nc(N2CC2)n1`, the lipophilicity (logP) is -0.32.
Molecule `COc1ccc(C2OCC(CO)(Nc3nc(N4CC4)nc(N4CC4)n3)CO2)cc1OC` (stereo unspecified) yielded a logP of 0.89.
For the molecule `OCC(CO)(CO)Nc1nc(N2CC2)nc(N2CC2)n1`, the log partition coefficient (logP) is -1.76.
Consider `CCC1(Nc2nc(N3CC3)nc(N3CC3)n2)COC(C)(C)OC1`, for which the logP is 0.85.
Regarding `OCC(CO)Nc1nc(N2CC2)nc(N2CC2)n1`, the lipophilicity (logP) was -1.54.
`CC1(C)OCC(CO)(Nc2nc(N3CC3)nc(N3CC3)n2)CO1`: the logP was -0.52.
For `CC(C)C1OCC(CO)(Nc2nc(N3CC3)nc(N3CC3)n2)CO1` (stereo unspecified), the logP was 0.22.
`CC1(C)OCC(Nc2nc(N3CC3)nc(N3CC3)n2)CO1` had a lipophilicity (logP) of 0.11.
The result for `OCC1(Nc2nc(N3CC3)nc(N3CC3)n2)COC(c2ccccc2)OC1` (stereo unspecified) reads 0.62; that for `CC(CO)(CO)Nc1nc(N2CC2)nc(N2CC2)n1`, -0.75.
